Test systems include A498; CCRF-CEM; HCC 2998; IGROV-1; KM12; LOX IMVI; M14; MCF7; MOLT-4; NCI-H460; NCI-H522; NCI/ADR-RES; OVCAR-4; SF-539; SK-MEL-2; SN12C; SR; SW-620; TK-10; UO-31.
Test in all cases: growth of human tumour cells (NCI), 48 h

The structures appear in SMILES notation.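 48-hour exposure; five concentrations; linearly interpolated endpoints. GI50: concentration for 50% inhibition of growth.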 Active and inactive are the calls of the source. Cut-off read from the data, not from the text of the source: active = GI50 up to about 1.1 µM and inactive = higher. Some results are limits rather than exact numbers.

Turning to `Oc1ccc2ccccc2c1C(c1ccc(Cl)cc1)c1c(O)ccc2ccccc12`, the GI50 in the experiment on A498 is 2.7 µM (inactive); with CCRF-CEM, 2.63 µM (inactive); in the experiment with HCC 2998, 1.34 µM (inactive); in the experiment with IGROV-1 it was 2.35 µM (inactive); in the experiment on KM12, 2.67 µM (inactive); in the experiment on LOX IMVI, 2.91 µM (inactive). Further, the GI50 with M14 was 4.06 µM (inactive); in the experiment with MCF7, 3.57 µM (inactive); with MOLT-4, 2.86 µM (inactive); in the experiment with NCI-H460 it was 3.16 µM (inactive); in the experiment with NCI-H522, 2.09 µM (inactive); in the experiment with NCI/ADR-RES, 2.85 µM (inactive). Moreover, the GI50 in the experiment with OVCAR-4 is 3.05 µM (inactive); in the experiment on SF-539, 5.05 µM (inactive); with SK-MEL-2, 2.4 µM (inactive); in the experiment with SN12C, 2.76 µM (inactive); in the experiment on SR it was 2.82 µM (inactive); in the experiment on SW-620, 3.18 µM (inactive). For the same compound, the figures for the GI50 with TK-10 and with UO-31 were 3.53 µM (inactive) and 2.9 µM (inactive), respectively.

For the compound `CC[C@@]1(O)C(=O)OCc2c1cc1n(c2=O)Cc2c-1nc1ccc(N)cc1c2CC[Si](C)(C)C`, the GI50 with A498 is < 0.01 µM (active); with CCRF-CEM it was < 0.01 µM (active); in the experiment with HCC 2998, < 0.0111 µM (active); with IGROV-1 it was < 0.01 µM (active); in the experiment on KM12, 0.0155 µM (active); with LOX IMVI, < 0.01 µM (active). In addition, the GI50 with M14, with MCF7, in the experiment on MOLT-4, with NCI-H460, with NCI-H522 and with NCI/ADR-RES was < 0.01 µM (active) each time. For the same compound, the GI50 is 0.015 µM (active) in the experiment with OVCAR-4; < 0.01 µM (active) in the experiment on SF-539; 0.0409 µM (active) in the experiment with SK-MEL-2; < 0.01 µM (active) in the experiment on SN12C; < 0.01 µM (active) with SR; < 0.01 µM (active) in the experiment with SW-620. The GI50 is 0.051 µM (active) with TK-10 and < 0.01 µM (active) with UO-31.

As to `O=C1CSC2(CC(/C=C/C=C/c3ccccc3)=NN2c2cccc(S(=O)(=O)O)c2)N1c1nc2ccccc2s1` (stereo not given), the GI50 with A498 is 26.4 µM (inactive); in the experiment on CCRF-CEM, 20.8 µM (inactive); with HCC 2998, 69.7 µM (inactive); in the experiment with IGROV-1, 33.7 µM (inactive); in the experiment on KM12 it was 45.8 µM (inactive); with LOX IMVI it was 20 µM (inactive). In addition, the GI50 is 60.4 µM (inactive) with M14; 29.6 µM (inactive) with MCF7; 21.2 µM (inactive) in the experiment on MOLT-4; 31.3 µM (inactive) in the experiment on NCI-H460; 4.71 µM (inactive) with NCI-H522; 51.1 µM (inactive) with NCI/ADR-RES. Besides, the GI50 with OVCAR-4 is 36.9 µM (inactive); in the experiment with SF-539 it was 51.1 µM (inactive); with SK-MEL-2 it was 26 µM (inactive); in the experiment on SN12C, 62.5 µM (inactive); in the experiment on SR, 21.2 µM (inactive); in the experiment with SW-620 it was 56.2 µM (inactive). Further, the values for the GI50 in the experiment with TK-10 and with UO-31 were 34.5 µM (inactive) and 45.3 µM (inactive), respectively.

Turning to `COC(=O)/C=C1/OC(c2ccc(OC)cc2)=C(Cl)C1=O`, the GI50 in the experiment with A498 is 22.5 µM (inactive); in the experiment on CCRF-CEM it was 4.78 µM (inactive); in the experiment on HCC 2998, 21.3 µM (inactive); in the experiment with IGROV-1, 16.9 µM (inactive); in the experiment on KM12, 18.1 µM (inactive); in the experiment on LOX IMVI, 7.94 µM (inactive). Besides, the GI50 was 16.9 µM (inactive) in the experiment on M14; 8.32 µM (inactive) in the experiment on MCF7; 2.96 µM (inactive) with MOLT-4; 18.4 µM (inactive) with NCI-H460; 14.6 µM (inactive) in the experiment on NCI-H522; 25.8 µM (inactive) in the experiment with NCI/ADR-RES. Further, the GI50 is 16.3 µM (inactive) in the experiment with OVCAR-4; 19.1 µM (inactive) in the experiment on SF-539; 17.2 µM (inactive) with SK-MEL-2; 18.9 µM (inactive) with SN12C; 1.61 µM (inactive) in the experiment with SR; 12.4 µM (inactive) in the experiment on SW-620. For the same compound, the GI50 in the experiment with TK-10 was 24.3 µM (inactive); in the experiment on UO-31, 21 µM (inactive).

`CC(NC(=O)N(C)C)NC(=O)N(C)C`: the GI50 in the experiment with A498, in the experiment with CCRF-CEM, with HCC 2998, with IGROV-1, in the experiment on KM12 and in the experiment with LOX IMVI was > 10 µM (inactive) each time. Also, the GI50 in the experiment on M14, in the experiment with MCF7, with MOLT-4, in the experiment on NCI-H460, in the experiment with NCI-H522 and in the experiment on NCI/ADR-RES was > 10 µM (inactive) in each case. Moreover, the GI50 in the experiment with OVCAR-4, in the experiment with SF-539, in the experiment with SK-MEL-2, in the experiment on SN12C, in the experiment with SR and with SW-620 was > 10 µM (inactive) in each case. Moreover, the GI50 with TK-10 and in the experiment on UO-31 was > 10 µM (inactive) in each case.

Consider `CC(C)(C)c1ccc(O)c(Br)c1`, for which the GI50 was > 100 µM (inactive) in the experiment with A498; > 100 µM (inactive) with CCRF-CEM; 51.8 µM (inactive) in the experiment with HCC 2998; 19.1 µM (inactive) in the experiment with IGROV-1; 63.5 µM (inactive) in the experiment with KM12; > 100 µM (inactive) in the experiment with LOX IMVI. Further, the GI50 in the experiment with M14, with MCF7, with MOLT-4, in the experiment on NCI-H460, with NCI-H522 and with NCI/ADR-RES was > 100 µM (inactive) throughout. In addition, the GI50 in the experiment with OVCAR-4 is > 100 µM (inactive); with SF-539, > 100 µM (inactive); in the experiment on SK-MEL-2, > 100 µM (inactive); in the experiment on SN12C, > 100 µM (inactive); in the experiment with SR it was 37.3 µM (inactive); with SW-620 it was > 100 µM (inactive). Further, the GI50 in the experiment with TK-10 and with UO-31 was > 100 µM (inactive) each time.

`CC(C)=CCC/C(C)=C/CC/C(C)=C/CCN(C)CCO`: the GI50 is 14.2 µM (inactive) with A498; 2.39 µM (inactive) in the experiment on CCRF-CEM; 2.03 µM (inactive) in the experiment on HCC 2998; 2.94 µM (inactive) in the experiment with IGROV-1; 2.75 µM (inactive) in the experiment with KM12; 3.15 µM (inactive) with LOX IMVI. The GI50 with M14 was 1.95 µM (inactive); in the experiment on MCF7, 2.45 µM (inactive); with MOLT-4 it was 3.44 µM (inactive); in the experiment with NCI-H460, 4.78 µM (inactive); in the experiment with NCI-H522, 6.61 µM (inactive); with NCI/ADR-RES, 12.4 µM (inactive). For the same compound, the GI50 in the experiment with OVCAR-4 is 13.9 µM (inactive); in the experiment with SF-539, 4.25 µM (inactive); with SK-MEL-2, 13.2 µM (inactive); in the experiment on SN12C, 12.3 µM (inactive); with SR, 6.35 µM (inactive); with SW-620, 3.58 µM (inactive). Besides, the figures for the GI50 in the experiment on TK-10 and in the experiment with UO-31 were 6 µM (inactive) and 12.1 µM (inactive), respectively.

As for `OCCO[P+]1(OCCO)n2c3ccc2C(c2ccccc2)=C2C=CC(=N2)C(c2ccccc2)=c2ccc(n21)=C(c1ccccc1)C1=NC(=C3c2ccccc2)C=C1`, the GI50 in the experiment with A498 was 0.349 µM (active); with CCRF-CEM, 0.0158 µM (active); in the experiment with HCC 2998 it was 0.0195 µM (active); in the experiment with IGROV-1, 0.022 µM (active); with KM12, 0.0247 µM (active); in the experiment on LOX IMVI it was 0.022 µM (active). For the same compound, the GI50 was 0.163 µM (active) in the experiment on M14; 0.0267 µM (active) in the experiment on MCF7; 0.0545 µM (active) in the experiment on MOLT-4; 0.0378 µM (active) in the experiment on NCI-H460; 0.0405 µM (active) in the experiment with NCI-H522; 3.28 µM (inactive) in the experiment on NCI/ADR-RES. Besides, the GI50 in the experiment on OVCAR-4 is 0.0719 µM (active); in the experiment with SF-539 it was 0.0335 µM (active); in the experiment on SK-MEL-2, 0.0481 µM (active); with SN12C, 0.0253 µM (active); in the experiment with SR, < 0.0106 µM (active); in the experiment on SW-620, 0.129 µM (active). Besides, the GI50 was 0.119 µM (active) in the experiment on TK-10 and 1.14 µM (inactive) with UO-31.

Take `CC(=O)Oc1ccc(/C=C/C(=O)O[C@@H](C)[C@H](C)OC(=O)/C=C/c2ccc(OC(C)=O)c(OC(C)=O)c2)cc1OC(C)=O`: the GI50 was 24.7 µM (inactive) in the experiment with A498; 3.94 µM (inactive) in the experiment with CCRF-CEM; 11.4 µM (inactive) in the experiment with HCC 2998; 5.75 µM (inactive) with IGROV-1; 9.46 µM (inactive) in the experiment with KM12; 6.61 µM (inactive) in the experiment with LOX IMVI. Besides, the GI50 in the experiment with M14 was 11.4 µM (inactive); in the experiment with MCF7 it was 20 µM (inactive); with MOLT-4 it was 2.22 µM (inactive); in the experiment with NCI-H460, 5.94 µM (inactive); in the experiment with NCI-H522, 6.37 µM (inactive); with NCI/ADR-RES it was 22.2 µM (inactive). For the same compound, the GI50 in the experiment with OVCAR-4 was 28.7 µM (inactive); with SF-539 it was > 100 µM (inactive); in the experiment with SK-MEL-2, 19.7 µM (inactive); in the experiment on SN12C, 19.6 µM (inactive); in the experiment with SR it was 5.77 µM (inactive); in the experiment on SW-620, 2.42 µM (inactive). Besides, the figures for the GI50 with TK-10 and in the experiment with UO-31 were 21.2 µM (inactive) and 5.94 µM (inactive), respectively.

With `O=C(CCBr)N1CCN(C(=O)CCBr)CC1` [PIPOBROMAN], the GI50 in the experiment on A498 is 80.7 µM (inactive); in the experiment on CCRF-CEM it was 15.1 µM (inactive); with HCC 2998 it was 69.3 µM (inactive); in the experiment on IGROV-1, 97.5 µM (inactive); with KM12 it was > 93.5 µM (inactive); with LOX IMVI, 48.3 µM (inactive). Further, the GI50 in the experiment with M14 was 57.7 µM (inactive); in the experiment on MCF7 it was 52.4 µM (inactive); in the experiment on MOLT-4, 13.4 µM (inactive); in the experiment with NCI-H460, 11.9 µM (inactive); in the experiment on NCI-H522, 63.2 µM (inactive); with NCI/ADR-RES it was 81.8 µM (inactive). Moreover, the GI50 with OVCAR-4 was 86.9 µM (inactive); in the experiment on SF-539, 62.5 µM (inactive); in the experiment with SK-MEL-2, 107 µM (inactive); in the experiment with SN12C, 42.6 µM (inactive); in the experiment on SR, 8.04 µM (inactive); in the experiment with SW-620 it was 89.9 µM (inactive). Also, the GI50 in the experiment on TK-10 is 244 µM (inactive); in the experiment on UO-31, 120 µM (inactive).
